“Also recorded” adds a separate entry of the source. Where two headings read alike, the source gives them in different places. Values belong to the molecule of their own block, whether it stands above or below them.
Assays:
adenylate cyclase [1] = conditions: literature; cited from earlier work
adenylate cyclase [2] = conditions: literature; cited from earlier work; remark: listed apart in the source
[3] = mildly basic conditions; literature; cited from earlier work
[4] = system: bovine brain adenylate cyclase; test: Activation of bovine brain adenylate cyclase; assay type: biochemical; conditions: relative to forskolin
Water solubility = assay type: physicochemical; conditions: relative to forskolin
glucose transporter [5] = target: T1, glucose transporter (Homo sapiens, UniProt P11169); test: Binding of 7-^125 I-HPP-Fsk to human platelets
T1 construct: other tissues including bovine brain, rat heart, rat muscle, and human platelets; from tissue; host or cells: human platelets
T1 sequence (P11169 1-496): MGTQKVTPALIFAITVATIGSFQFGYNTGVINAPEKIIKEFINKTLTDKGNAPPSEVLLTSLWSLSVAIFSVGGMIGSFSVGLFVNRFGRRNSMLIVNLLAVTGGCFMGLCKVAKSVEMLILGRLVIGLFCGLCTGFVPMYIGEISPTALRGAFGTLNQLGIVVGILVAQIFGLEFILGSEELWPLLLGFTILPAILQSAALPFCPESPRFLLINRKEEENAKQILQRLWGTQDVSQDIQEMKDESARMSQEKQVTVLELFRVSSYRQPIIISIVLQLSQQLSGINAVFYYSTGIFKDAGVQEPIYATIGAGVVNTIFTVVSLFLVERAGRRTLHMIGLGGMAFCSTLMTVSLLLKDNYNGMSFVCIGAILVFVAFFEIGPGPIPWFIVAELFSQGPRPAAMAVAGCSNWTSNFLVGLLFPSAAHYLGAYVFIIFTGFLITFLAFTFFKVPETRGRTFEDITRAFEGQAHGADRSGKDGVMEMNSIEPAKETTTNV
Text: (§1) 7-^125 I-HPP-Fsk also binds with high affinity to other tissues including bovine brain, rat heart, rat muscle, and human platelets. The binding of 7-^125 I-HPP-Fsk to these tissues is inhibited by D-glucose and cytochalasin B. Therefore, 7-^125 I-HPP-Fsk binds with high affinity to the glucose transporter in diverse tissues.

glucose transporter [6] = test: Binding of 7-^125 I-HPP-Fsk to bovine brain
Text: as §1

glucose transporter [7] = test: Binding of 7-^125 I-HPP-Fsk to rat muscle
Text: as §1

adenylate cyclase [8] = test: Filtration binding assay, ^125 I-labelled derivative 19 (6-^125 I-HPP-Fsk) to bovine brain membranes; conditions: bovine brain membranes, 20° C., 60 min
Text: Derivative 19 (6-^125 I-HPP-Fsk) was used to develop a binding assay for adenylate cyclase (Example 4). […] Therefore, a filtration assay can be used to separate the bound from free ligand and determine the amount of high affinity binding. […] Analogs of forskolin that activate adenylate cyclase inhibit the binding of 6-^125 I-HPP-Fsk to membranes. The ability of an agent to inhibit 6-^125 I-HPP-Fsk binding to membranes is therefore indicative of its ability to stimulate adenylate cyclase.
Binding of 6-^125 I-HPP-Fsk to Membranes--Crude membranes from bovine brain were incubated for 60 minutes at […] 20° C. with 20,000 cpm of 6-^125 I-HPP-Fsk. Binding equilibrium was reached by 45 minutes and was constant for at least 2 hours (data not shown). The incubations were carried out at 20° C. for 60 minutes in 12×75 glass test tubes in a total volume of 0.4 mL […] Tris-HCl buffer, pH 7.4. The membranes (0.40 mg/tube) were incubated in the presence of 5 mM MgCl2 and 10 mM NaF. The assay was terminated by the addition of 5 mL of cold Tris-HCl buffer to the tubes and rapid filtration over Whatman GF/C filters using a Brandel cell harvester. The assay was terminated as described above and the filters counted in a gamma counter. The nonspecific binding was calculated as the amount of label not displaced by 20 uM forskolin. The non specific binding was about 20% of the total bound.

glucose transporter [9] = test: Binding of 7-^125 I-HPP-Fsk to rat heart
Text: as §1

glucose transporter [10] = target: T2, glucose transporter (Homo sapiens, UniProt P11166); test: Photolabelling of human red blood cell membranes, SDS gel electrophoresis; assay type: binding
T2 construct: Crude membranes from human red blood cells; from tissue; host or cells: human red blood cells, membranes
T2 sequence (P11166 1-492): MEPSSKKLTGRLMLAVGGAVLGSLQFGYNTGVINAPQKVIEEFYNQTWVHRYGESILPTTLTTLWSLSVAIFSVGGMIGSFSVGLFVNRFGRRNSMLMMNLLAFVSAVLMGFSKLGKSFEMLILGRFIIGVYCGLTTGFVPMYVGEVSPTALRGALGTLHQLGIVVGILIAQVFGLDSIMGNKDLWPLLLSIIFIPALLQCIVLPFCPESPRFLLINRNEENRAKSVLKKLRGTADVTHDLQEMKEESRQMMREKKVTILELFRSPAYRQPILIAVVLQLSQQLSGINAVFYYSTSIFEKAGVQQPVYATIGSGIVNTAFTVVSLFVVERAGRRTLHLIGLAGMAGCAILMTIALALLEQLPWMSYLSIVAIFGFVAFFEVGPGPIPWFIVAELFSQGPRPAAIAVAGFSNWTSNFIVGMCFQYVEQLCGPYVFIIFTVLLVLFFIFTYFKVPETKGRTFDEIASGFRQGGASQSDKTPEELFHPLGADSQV
Method: Derivative 9 (7-AIPPS-Fsk) is incubated with human red blood cell membranes, photolyzed, and then the radioactive proteins were analyzed by SDS gel electrophoresis.

glucose transporter [11] = target: T2, glucose transporter; test: Filtration binding assay, ^125 I-labelled derivative 8 (7-^125 I-HPP-Fsk) to human red blood cell membranes
Method: Binding of 7-^125 IHPP-Fsk to Membranes--Crude membranes from human red blood cells were incubated for 60 minutes at 20° C. with 20,000 cpm of 7-^125 IHPP-Fsk. […] The incubations were carried out at 20° C. for 60 minutes in 12×75 glass test tubes in a total volume of 0.4 mL 50 mM Tris-HCl buffer, pH 7.4. The assay was terminated by the addition of 4 mL of cold Tris-HCl buffer to the tubes at rapid filtration over Whatman GF/C filters using a Brandel cell harvester. The assay was terminated as described above and the filters counted in a gamma counter. The nonspecific binding was calculated as the amount of label not displaced by 20 μM forskolin.

adenylate cyclase [12] = test: Photolabelling of bovine brain membranes, SDS gel electrophoresis; assay type: binding
Method: (§2) Derivative 20 (6-AIPPS-Fsk) is incubated with partially purified preparations of bovine brain adenylate cyclase, photolyzed, and then the radioactive proteins are analyzed by SDS gel electrophoresis. […] 6-AIPPS-Fsk can also label adenylate cyclase in crude membranes. 6-AIPPS-Fsk is incubated with bovine brain membranes, photolyzed, and the radioactive proteins are analyzed by SDS gel electrophoresis.

adenylate cyclase [13] = test: Photolabelling of partially purified bovine brain adenylate cyclase, SDS gel electrophoresis; assay type: binding
Method: as §2

P-glycoprotein = P-glycoprotein (Homo sapiens, UniProt P08183)
P-glycoprotein, sequence (P08183 whole entry): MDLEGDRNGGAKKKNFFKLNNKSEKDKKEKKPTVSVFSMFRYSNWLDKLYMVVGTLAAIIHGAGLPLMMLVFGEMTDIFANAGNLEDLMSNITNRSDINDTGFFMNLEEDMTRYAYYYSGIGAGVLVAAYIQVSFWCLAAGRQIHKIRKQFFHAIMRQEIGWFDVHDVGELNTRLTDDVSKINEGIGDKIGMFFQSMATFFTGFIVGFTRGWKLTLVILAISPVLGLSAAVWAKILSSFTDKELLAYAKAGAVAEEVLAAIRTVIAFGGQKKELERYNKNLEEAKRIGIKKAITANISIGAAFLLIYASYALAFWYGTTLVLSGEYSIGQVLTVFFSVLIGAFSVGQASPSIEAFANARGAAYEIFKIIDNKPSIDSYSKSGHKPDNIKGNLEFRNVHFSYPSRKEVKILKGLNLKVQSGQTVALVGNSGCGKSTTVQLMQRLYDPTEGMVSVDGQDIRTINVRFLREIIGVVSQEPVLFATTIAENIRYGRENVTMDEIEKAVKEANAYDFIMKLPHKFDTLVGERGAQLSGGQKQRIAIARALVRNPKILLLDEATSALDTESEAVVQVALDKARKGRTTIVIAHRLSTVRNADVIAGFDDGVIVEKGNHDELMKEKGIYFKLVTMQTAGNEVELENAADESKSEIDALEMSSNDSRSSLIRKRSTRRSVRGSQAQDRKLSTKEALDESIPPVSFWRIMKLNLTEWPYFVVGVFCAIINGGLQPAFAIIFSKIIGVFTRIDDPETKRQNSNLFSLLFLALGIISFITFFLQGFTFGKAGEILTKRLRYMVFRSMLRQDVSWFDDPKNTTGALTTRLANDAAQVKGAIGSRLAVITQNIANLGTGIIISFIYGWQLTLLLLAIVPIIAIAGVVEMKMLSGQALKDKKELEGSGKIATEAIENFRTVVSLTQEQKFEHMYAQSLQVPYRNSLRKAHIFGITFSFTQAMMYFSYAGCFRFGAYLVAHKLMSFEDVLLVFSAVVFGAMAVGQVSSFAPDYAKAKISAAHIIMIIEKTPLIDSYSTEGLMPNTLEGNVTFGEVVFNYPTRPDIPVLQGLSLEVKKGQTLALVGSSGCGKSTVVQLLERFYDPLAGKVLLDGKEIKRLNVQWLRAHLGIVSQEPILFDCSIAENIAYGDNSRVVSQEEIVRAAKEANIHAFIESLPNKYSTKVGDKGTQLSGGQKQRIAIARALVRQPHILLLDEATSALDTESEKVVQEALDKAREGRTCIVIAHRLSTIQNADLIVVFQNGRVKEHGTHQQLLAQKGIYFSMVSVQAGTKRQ

Structure (SMILES): C=C[C@@]1(C)CC(=O)[C@]2(O)[C@@]3(C)[C@@H](O)CCC(C)(C)[C@@H]3[C@H](OC(C)=O)[C@H](O)[C@@]2(C)O1 [6-acetyl-7-desacetylforskolin]
activation of adenylate cyclase (adenylate cyclase [1]): less potent than forskolin

Structure (SMILES): C=C[C@@]1(C)CC(=O)[C@]2(O)[C@@]3(C)[C@@H](O)CCC(C)(C)[C@@H]3[C@H](O)[C@H](OC(=O)CCl)[C@@]2(C)O1 [7-desacetyl-7-chloroacetylforskolin]
block of forskolin binding site (adenylate cyclase [2]): block the forskolin binding site on adenylate cyclase
susceptibility to hydrolysis and rearrangement [3]: susceptible to hydrolysis and rearrangement under mildly basic conditions

Structure (SMILES): C=C[C@@]1(C)CC(=O)[C@]2(O)[C@@]3(C)[C@@H](O)CCC(C)(C)[C@@H]3[C@H](O)[C@H](OC(=O)CC)[C@@]2(C)O1 [7-desacetyl-7-propionylforskolin]
activation of adenylate cyclase (adenylate cyclase [1]): active at adenylate cyclase

Structure (SMILES): C=C[C@@]1(C)CC(=O)[C@]2(O)[C@@]3(C)[C@@H](O)CCC(C)(C)[C@@H]3[C@H](O)[C@H](O)[C@@]2(C)O1 [7-desacetylforskolin]
activation of adenylate cyclase (adenylate cyclase [1]): less potent than forskolin

Structure (SMILES): C=C[C@@]1(C)CC(=O)[C@]2(O)[C@@]3(C)[C@@H](O)CCC(C)(C)[C@@H]3[C@H](O)[C@H](OC(=O)CBr)[C@@]2(C)O1 [7-descacetyl-7-bromoacetylforskolin]
block of forskolin binding site (adenylate cyclase [2]): block the forskolin binding site on adenylate cyclase
susceptibility to hydrolysis and rearrangement [3]: susceptible to hydrolysis and rearrangement under mildly basic conditions

Structure (SMILES): C=C[C@@]1(C)CC(O)[C@]2(O)[C@@]3(C)[C@@H](O)CCC(C)(C)[C@@H]3[C@H](O)[C@H](OC(C)=O)[C@@]2(C)O1 (stereo partly drawn) [11β-hydroxyforskolin]
activation of adenylate cyclase (adenylate cyclase [1]): less potent than forskolin

Structure (SMILES): CC[C@@]1(C)CC(=O)[C@]2(O)[C@@]3(C)[C@@H](O)CCC(C)(C)[C@@H]3[C@H](O)[C@H](OC(C)=O)[C@@]2(C)O1 [14,15-dihydroforskolin]
activation of adenylate cyclase (adenylate cyclase [1]): less potent than forskolin

water solubility (Water solubility): enhanced water solubility
Structure (SMILES): C=C[C@@]1(C)CC(=O)[C@]2(O)[C@@]3(C)[C@@H](O)CCC(C)(C)[C@@H]3[C@H](OC(=O)NCCN)[C@H](OC(C)=O)[C@@]2(C)O1 [Compound 4, 6-aminoethylcarbamylforskolin]
extent of stimulation of adenylate cyclase [4]: stimulate adenylate cyclase to a greater extent than forskolin

Structure (SMILES): OC[C@H]1OC(O)[C@H](O)[C@@H](O)[C@@H]1O (stereo partly drawn) [D-glucose]
inhibition of 7-^125 I-HPP-Fsk binding (glucose transporter [5]): inhibited
inhibition of 7-^125 I-HPP-Fsk binding (glucose transporter [6]): inhibited
inhibition of 7-^125 I-HPP-Fsk binding (glucose transporter [7]): inhibited
inhibition of 6-^125 I-HPP-Fsk binding (adenylate cyclase [8]): not inhibited
inhibition of 7-^125 I-HPP-Fsk binding (glucose transporter [9]): inhibited
inhibition of labelling by 7-AIPPS-Fsk (glucose transporter [10]): inhibited
inhibition of 7-^125 I-HPP-Fsk binding (glucose transporter [11]): inhibited; also recorded: inhibition of binding

binding affinity (glucose transporter [5]): high affinity
binding affinity (glucose transporter [6]): high affinity
binding affinity (glucose transporter [7]): high affinity
binding affinity (glucose transporter [9]): high affinity
time binding was constant (glucose transporter [11]; 20° C.): at least 2 hours
time to binding equilibrium (glucose transporter [11]; 20° C.): ≤ 45 min
nonspecific binding (of total bound) (glucose transporter [11]; label not displaced by 20 μM forskolin): about 20%
Kd (glucose transporter [11]; membranes from human red blood cells, read-out: affinity of 7-^125 I-HPP-Fsk): 0.03 µM
Structure (SMILES): C=C[C@@]1(C)CC(=O)[C@]2(O)[C@@]3(C)[C@@H](O)CCC(C)(C)[C@@H]3[C@H](O)[C@H](OC(=O)NCCNC(=O)CCc3ccc(O)c([125I])c3)[C@@]2(C)O1 [Derivative 8]
binding affinity / selectivity (glucose transporter [11]; human red blood cell glucose transporter, listed as 7-^125 I-HPP-Fsk): binds to the human red blood cell glucose transporter with high affinity; also recorded: will not detect adenylate cyclase

Structure (SMILES): C=C[C@@]1(C)CC(=O)[C@]2(O)[C@@]3(C)[C@@H](O)CCC(C)(C)[C@@H]3[C@H](O)[C@H](OC(=O)NCCNC(=O)CCc3ccc(N=[N+]=[N-])c([125I])c3)[C@@]2(C)O1 [Derivative 9]
photolabelling of glucose transporter (glucose transporter [10]; listed as 7-AIPPS-Fsk): labels the glucose transporter; also recorded: more potent at labelling the glucose transporter in human red blood cell membranes than 6-AIPPS-Fsk
photolabelling of adenylate cyclase (adenylate cyclase [12]): less efficient at labelling the adenylate cyclase than the 6-AIPPS-Fsk

Structure (SMILES): C=C[C@@]1(C)CC(=O)[C@]2(O)[C@@]3(C)[C@@H](O)CCC(C)(C)[C@@H]3[C@H](OC(=O)NCCNC(=O)CCc3ccc(N=[N+]=[N-])c([125I])c3)[C@H](OC(C)=O)[C@@]2(C)O1 [Derivative 20]
photolabelling of adenylate cyclase (adenylate cyclase [13]): covalently incorporated into the adenylate cyclase
photolabelling of P-glycoprotein (P-glycoprotein): labelled
photolabelling of adenylate cyclase (adenylate cyclase [12]): labels the adenylate cyclase in bovine brain membranes

Structure (SMILES): C=C[C@@]1(C)CC(=O)[C@]2(O)[C@@]3(C)[C@@H](O)CCC(C)(C)[C@@H]3[C@H](OC(=O)NCCNC(=O)CCc3ccc(O)cc3)[C@H](OC(C)=O)[C@@]2(C)O1 [Derivative 21]
inhibition of labelling by 6-AIPPS-Fsk (P-glycoprotein): more potent at inhibiting the labelling by 6-AIPPS-Fsk than forskolin

Structure (SMILES): OC[C@@H]1OC(O)[C@@H](O)[C@H](O)[C@H]1O (stereo partly drawn) [L-glucose]
inhibition of 7-^125 I-HPP-Fsk binding (glucose transporter [11]): not L-glucose

inhibition of 7-^125 I-HPP-Fsk binding (glucose transporter [11]; human red blood cell membranes): relatively potent
Structure (SMILES): O=C(CCc1ccc(O)cc1)c1c(O)cc(O)cc1O[C@@H]1O[C@H](CO)[C@@H](O)[C@H](O)[C@H]1O [phloridzin]

From patent US5350864A, “Aminoalkylcarbamyl derivatives of forskolin as intermediates for the synthesis of useful forskolin derivatives” (The United States of America as represented by the …, priority 1990, dated 1994)
